How the values were obtained:
[1] = system: MSSP (Methicillin-Susceptible Staphylococcus pseudintermedius); assay: MIC against selected strains of MSSP; type: cell-based; parameters: key to MIC MSSP 84658 / MIC MSSP 86000 / MIC MSSP 71990 / MIC MSSP 72036 / MIC MSSP 78032: MIC in μM; key to MIC MSSP 86001 / MIC MSSP 72191 / MIC MSSP 76986 / MIC MSSP 77378: MIC in μM (first well with no visible growth); MIC MSSP 49051 / MIC MSSP 81923 / MIC MSSP 84250 / Effect on MSSP 86000 / Effect on MSSP 72036 / Effect on MSSP 78032: unit not given beside the values; conditions: for MIC MSSP 49051: strain 49051, Table 3; for MIC MSSP 71990: strain 71990, Table 3; for MIC MSSP 72036: strain 72036, Table 3; for MIC MSSP 72191: strain 72191, Table 3; for MIC MSSP 76986: strain 76986, Table 3; for MIC MSSP 77378: strain 77378, Table 3; for MIC MSSP 78032: strain 78032, Table 3; for MIC MSSP 81923: strain 81923, Table 3; for MIC MSSP 84250: strain 84250, Table 3; for MIC MSSP 84658: strain 84658, Table 3; for MIC MSSP 86000: strain 86000, Table 3; for MIC MSSP 86001: strain 86001, Table 3
Method: (§1) Peptides according to SEQ ID NOs as listed in Table 1 were prepared by a commercial manufacturer (CS Bio, Menlo Park, Calif.) using solid phase synthesis. Antimicrobial activity was assessed by determining the Minimal Inhibitory Concentration (MIC) against S. aureus and E. coli. Briefly, Microbroth MICs were performed using CLSI methodology (VET01-S2). For S. aureus and E. coli ATCC strains, TSA with 5% lysed horse blood agar was used for overnight culturing at 37° C. ambient air. A 0.5 mM stock for each peptide was made with cell culture water, 0.01% acetic acid and serially diluted and spotted (10 μL) in a 96-well plate for in assay dose titration concentration of 50 μM to 0.05 μM. 0.5 McFarland Standard of each strain was diluted 1:250 in Mueller-Hinton Broth (MHB). 90 μL of culture suspension was then added upon drug in the 96-well plate for overnight incubation for 18-20 hours. The MIC was determined visually at the first well of no visible growth at the corresponding concentration.
(§2) Antimicrobial activity of the peptides listed in Table 2 against different strains of MSSP (Methicillin-Susceptible Staphylococcus pseudintermedius) and MRSP (Methicillin-Resistant Staphylococcus pseudintermedius) was further assessed. The results are in Tables 3 and 4, respectively.

[2] = system: MRSP (Methicillin-Resistant Staphylococcus pseudintermedius); assay: MIC against selected strains of MRSP; type: cell-based; parameters: key to MIC MRSP 88493 / MIC MRSP 72035 / MIC MRSP 81926: MIC in μM; key to MIC MRSP 71994 / MIC MRSP 79882 / MIC MRSP 80729 / MIC MRSP 86002: MIC in μM (first well with no visible growth); key to MIC MRSP 72192 / MIC MRSP 76923 / MR 71994 / Mr 88493 / MR 72035 / MR 72192 / MR 76923 / MR 79882 / MR 80279 / MR 81926 / MR 86002 / MR 87665: MIC in μM (visual, first well with no growth); MIC MRSP 87655: unit not given beside the values; conditions: for MIC MRSP 71994: strain 71994, Table 4; for MIC MRSP 72035: strain 72035, Table 4; for MIC MRSP 72192: strain 72192, Table 4; for MIC MRSP 76923: strain 76923, Table 4; for MIC MRSP 79882: strain 79882, Table 4; for MIC MRSP 80729: strain 80729, Table 4; for MIC MRSP 81926: strain 81926, Table 4; for MIC MRSP 86002: strain 86002, Table 4; for MIC MRSP 87655: strain 87655, Table 4; for MIC MRSP 88493: strain 88493, Table 4
Method: as §1, §2

cRBC = type: cell-based, canine
Method: SEQ ID NO: 1 was selected for further research. Toxicity of SEQ ID NO: 1 to eukaryotic blood cells was compared to that of tachyplesin (SEQ ID NO: 13). A standard, well referenced red blood cell hemolysis assay was employed against multiple species to test the lysis potential of the peptides. Red blood cells (RBCs) were prepared and isolated by several centrifuge and wash steps to remove the plasma fraction. A dose titration (50 μM to 0.05 μM) of test peptides and control peptide melittin were spotted from 50 mM stocks in a 384 well plate. Prepared RBCs were incubated with peptide for one hour at 37° C. Percent hemolysis was measured by optical density at 405 nm and utilizing 1% TritonX100 as hundred percent effect (HPE) and phosphate buffer alone as zero percent effect (ZPE).

[3] = system: Canine-derived epithelial keratinocyte (CPEK) cells; type: cell-based
Method: Safety of the peptides listed in table 2 was determining by measuring cell viability. Canine-derived epithelial keratinocyte (CPEK) cells were propagated to determine cell viability in the presence of peptides. Cells were grown from a frozen stock in CnT-09-5 (with supplements) pre-warmed media in a T75 flask and incubated overnight at 37° C., 5% CO2. Cells were washed with phosphate buffer and replenished with pre-warmed CnT-05-9 media and repeated for several days until cells reached a density of 6.6×10^4 cells/mL. Cells were then transferred to a 384 well plate, allowed to settle and dosed with peptides and melittin control peptide (50 μM to 0.05 μM) and incubated overnight at 37° C., 5% CO2. 0.1% TritonX100 as (HPE) and phosphate buffer alone as (ZPE) were added to the plates to calculate percent effect once the assay was terminated with 10 μL CELLTITER-GLO® assay reagents for a luminescent readout.

| Substance | MIC MSSP 49051 [1] | MIC MSSP 71990 [1] | MIC MSSP 72036 [1] | MIC MSSP 72191 [1] | MIC MSSP 76986 [1] | MIC MSSP 77378 [1] | MIC MSSP 78032 [1] | MIC MSSP 81923 [1] | MIC MSSP 84250 [1] | MIC MSSP 84658 [1] | MIC MSSP 86000 [1] | MIC MSSP 86001 [1] | MIC MRSP 71994 [2] | MIC MRSP 72035 [2] | MIC MRSP 72192 [2] | MIC MRSP 76923 [2] | MIC MRSP 79882 [2] | MIC MRSP 80729 [2] | MIC MRSP 81926 [2] | MIC MRSP 86002 [2] | further results |
| --- | --- | --- | --- | --- | --- | --- | --- | --- | --- | --- | --- | --- | --- | --- | --- | --- | --- | --- | --- | --- | --- |
| 2 (RWCFRVCYRGICYRRCRD; Artificial antimicrobial peptide) [compound 2] | 1.6 | 1.6 | 1.6 | 1.6 | 1.6 | 1.6 | 1.6 | 3.1 | 1.6 | 3.1 | 1.6 | 1.6 | 1.6 | 1.6 | 1.6 | 1.6 | 0.8 | 1.6 | 1.6 | 1.6 | MIC MRSP 87655 [2]: 1.6; MIC MRSP 88493 [2]: 1.6; cRBC (50 μM) (cRBC): 64.0; CPEK (50 μM) [3]: −1.7 |
| 5 (KWCFYVCYRGICYRRCRD; Artificial Antimicrobial peptide) [compound 5] | 1.6 | 1.6 | 1.6 | 1.6 | 1.6 | 0.8 | 1.6 | 1.6 | 1.6 | 1.6 | 1.6 | 1.6 | 1.6 | 1.6 | 1.6 | 1.6 | 1.6 | 1.6 | 1.6 | 1.6 | MIC MRSP 87655 [2]: 1.6; MIC MRSP 88493 [2]: 1.6; cRBC (50 μM) (cRBC): 3.1; CPEK (50 μM) [3]: 28.6 |
| 7 (KWCFRVCYRGVCYRRCRD; Artificial Antimicrobial peptide) [compound 7] | 1.6 | 1.6 | 1.6 | 1.6 | 1.6 | 0.8 | 1.6 | 1.6 | 1.6 | 1.6 | 1.6 | 1.6 | 1.6 | 1.6 | 1.6 | 1.6 | 1.6 | 1.6 | 1.6 | 1.6 | MIC MRSP 87655 [2]: 1.6; MIC MRSP 88493 [2]: 1.6; cRBC (50 μM) (cRBC): 84.1; CPEK (50 μM) [3]: 11.3 |
| 4 (KFCFRVCYRGICYRRCRD; Artificial antimicrobial peptide) [compound 4] | 1.6 | 1.6 | 0.8 | 0.8 | 0.8 | 0.4 | 0.8 | 1.6 | 1.6 | 1.6 | 1.6 | 0.8 | 1.6 | 1.6 | 1.6 | 0.8 | 0.8 | 0.8 | 0.8 | 1.6 | MIC MRSP 87655 [2]: 1.6; MIC MRSP 88493 [2]: 1.6; cRBC (50 μM) (cRBC): 67.1; CPEK (50 μM) [3]: 16.6 |
| 8 (KWCFRVCYRGACYRRCRD; Artificial Antimicrobial peptide) [compound 8] | 1.6 | 1.6 | 1.6 | 1.6 | 1.6 | 0.8 | 1.6 | 3.1 | 1.6 | 1.6 | 1.6 | 1.6 | 1.6 | 1.6 | 1.6 | 1.6 | 1.6 | 1.6 | 1.6 | 1.6 | MIC MRSP 87655 [2]: 1.6; MIC MRSP 88493 [2]: 1.6; cRBC (50 μM) (cRBC): 30.2; CPEK (50 μM) [3]: 24.6 |

— patent US11352396B2, “Antimicrobial peptides and methods of using same” (Zoetis Services LLC, priority 2017, dated 2022)
